Measured values as given in the supplement of paper PMC10307832.

How the values were obtained:
Assay in all cases: relative viability (nuclei count vs DMSO), 5 days (fraction); higher = more cells survive
[1] = compound: CCn1c(-c2nonc2N)nc2c(C#CC(C)(C)O)ncc(OC[C@H]3CCCNC3)c21 + CS(=O)(=O)CCNCc1ccc(-c2ccc3ncnc(Nc4ccc(OCc5cccc(F)c5)c(Cl)c4)c3c2)o1 [Lapatinib] (partner 2 µM)
In short: (§1)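 Nuclei were stained with Hoechst during a one-step fixation (final 0.05% Triton X-100, 1% formaldehyde, 1 ug/ml Hoechst) carried out 5 days after dosing, then counted on 4× images. The cells, lung cancer lines in 1536-well plates, had been dosed by pin tool the day after seeding with one drug alone or a fixed anchor-drug dose plus five library-drug doses (not always all listed) in √10 steps. Relative viability is the nuclei count in treated wells divided by that in vehicle wells, and each value is the median of duplicate plates.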

[2] = compound: CCn1c(-c2nonc2N)nc2c(C#CC(C)(C)O)ncc(OC[C@H]3CCCNC3)c21 + Cc1nc(NC(=O)N2CCC[C@H]2C(N)=O)sc1-c1ccnc(C(C)(C)C(F)(F)F)c1 [Alpelisib] (partner 2 µM)
In short: as §1

BAM7 + Decitabine = compound: CCOC1=CC=CC=C1N=NC2=C(NN(C2=O)C3=NC(=CS3)C4=CC=CC=C4)C [BAM7] + Nc1ncn([C@H]2C[C@H](O)[C@@H](CO)O2)c(=O)n1 [Decitabine] (partner 2 µM)
In short: as §1

BAM7 + Alpelisib = compound: CCOC1=CC=CC=C1N=NC2=C(NN(C2=O)C3=NC(=CS3)C4=CC=CC=C4)C [BAM7] + Cc1nc(NC(=O)N2CCC[C@H]2C(N)=O)sc1-c1ccnc(C(C)(C)C(F)(F)F)c1 [Alpelisib] (partner 2 µM)
In short: as §1

Cell Line | relative viability ([1]; first compound 0.01 µM) | relative viability ([1]; first compound 0.03162 µM) | relative viability ([1]; first compound 0.1 µM) | relative viability ([1]; first compound 0.3162 µM) | relative viability ([1]; first compound 1 µM) | relative viability ([2]; first compound 0.01 µM) | relative viability ([2]; first compound 0.03162 µM) | relative viability ([2]; first compound 0.1 µM) | relative viability ([2]; first compound 0.3162 µM) | relative viability ([2]; first compound 1 µM) | relative viability (BAM7 + Decitabine; first compound 0.5 µM) | relative viability (BAM7 + Decitabine; first compound 5 µM) | relative viability (BAM7 + Decitabine; first compound 15.81 µM) | relative viability (BAM7 + Decitabine; first compound 50 µM) | relative viability (BAM7 + Alpelisib; first compound 0.5 µM) | relative viability (BAM7 + Alpelisib; first compound 5 µM) | relative viability (BAM7 + Alpelisib; first compound 15.81 µM) | relative viability (BAM7 + Alpelisib; first compound 50 µM)
NCI-H1793 | 0.75 | 0.699 | 0.577 | 0.548 | 0.939 | 0.815 | 0.812 | 0.508 | 0.592 | 0.64 | 0.469 | 0.552 | 0.467 | 0.486 | 0.752 | 0.892 | 0.541 | 0.675
NCI-H1915 | 0.981 | 0.889 | 0.956 | 0.927 | 0.973 | 1.06 | 1.06 | 1.02 | 1.04 | 1.08 | 0.266 | 0.259 | 0.249 | 0.281 | 1.08 | 1.11 | 1.03 | 1.05
NCI-H1944 | 0.767 | 0.825 | 0.751 | 0.773 | 0.819 | 0.886 | 0.759 | 0.844 | 0.804 | 0.777 | 0.407 | 0.405 | 0.41 | 0.403 | 0.875 | 0.902 | 0.661 | 0.81
NCI-H1975 | 0.828 | 0.975 | 0.927 | 0.799 | 0.728 | 0.716 | 0.656 | 0.623 | 0.543 | 0.583 | 0.372 | 0.377 | 0.351 | 0.382 | 0.539 | 0.508 | – | 0.548
NCI-H1993 | 0.957 | 0.781 | 0.947 | 0.704 | 0.872 | 0.732 | 0.718 | 0.57 | 0.729 | 0.868 | 0.582 | 0.633 | 0.498 | 0.551 | 0.766 | 0.689 | 0.585 | 0.629
NCI-H2009 | 0.974 | 1.03 | 1.05 | 1.02 | 0.905 | 1.15 | 1.19 | 1.22 | 1.17 | 1.18 | 0.369 | 0.39 | 0.351 | 0.418 | 1.21 | 1.15 | 1.1 | 1.15
NCI-H2023 | 0.74 | 0.792 | 0.769 | 0.689 | 0.953 | 0.636 | 0.625 | 0.539 | 0.504 | 0.559 | 0.218 | 0.225 | 0.191 | 0.246 | 0.639 | 0.507 | 0.502 | 0.485
NCI-H2085 | 0.8 | 0.7 | 0.601 | 0.574 | 0.573 | 0.974 | 0.866 | 0.988 | 0.865 | 0.84 | 0.558 | 0.549 | 0.47 | 0.604 | 0.957 | 1.07 | 0.834 | 0.981
NCI-H2087 | 0.965 | 0.999 | 0.899 | 1.07 | 1.03 | 0.917 | 1.2 | 1.13 | 1.02 | 0.927 | 0.339 | 0.289 | 0.292 | 0.297 | 1.17 | 1.15 | 0.917 | 0.985
NCI-H2126 | 0.779 | 0.773 | 0.641 | 0.731 | 0.755 | 0.72 | 0.793 | 0.74 | 0.746 | 0.753 | 0.55 | 0.548 | 0.509 | 0.617 | 0.703 | 0.677 | 0.606 | 0.704
NCI-H2170 | 0.283 | 0.254 | 0.266 | 0.261 | 0.302 | 0.837 | 0.833 | 0.824 | 0.721 | 0.759 | 0.411 | 0.436 | 0.405 | 0.432 | 0.631 | 0.603 | 0.537 | 0.672
NCI-H2347 | 0.891 | 0.934 | 0.995 | 0.897 | 0.889 | 1.09 | 0.97 | 0.992 | 0.972 | 1.17 | 0.598 | 0.736 | 0.641 | 0.606 | 1.03 | 1.23 | 1.04 | 0.985
NCI-H2405 | 1.11 | 1.06 | – | 1.01 | 1.02 | 0.839 | 0.782 | – | 0.749 | 0.855 | 0.765 | 0.804 | 0.757 | 0.73 | 0.862 | 0.773 | 0.684 | 0.839
NCI-H3122 | 0.959 | 1.04 | 1.05 | 1.13 | 1 | 0.869 | 0.71 | 0.795 | 0.798 | 0.756 | 0.506 | 0.514 | 0.447 | 0.444 | 0.881 | 0.822 | 0.804 | 0.763
PC-3 [JPC-3] | 0.442 | 0.433 | 0.472 | 0.449 | 0.445 | 1.16 | 1.02 | 0.977 | 1.02 | 1.02 | 0.775 | 0.808 | 0.688 | 0.766 | 1.02 | 0.99 | 0.876 | 0.907
PC-14 | 0.314 | 0.406 | 0.319 | 0.246 | 0.291 | 0.945 | 0.909 | 1 | 0.888 | 0.865 | 0.243 | 0.183 | 0.208 | 0.208 | 0.983 | 0.841 | 0.915 | 0.906
RERF-LC-KJ | 0.873 | 0.743 | 0.814 | 0.832 | 0.926 | 0.886 | 0.958 | 0.737 | 0.656 | 0.781 | 0.617 | 0.615 | 0.398 | 0.48 | 0.814 | 0.823 | 0.716 | 0.766
SK-LU-1 | 1.02 | 0.907 | 0.85 | 0.894 | 0.676 | 1.08 | 1.26 | 0.968 | 1 | 1.13 | 0.626 | 0.629 | 0.693 | 0.697 | 0.703 | 1.1 | 0.955 | 1.09
